Reference: US8759549B2, “Compound extracted from Antrodia cinnamomea and pharmaceutical composition comprising the same” (priority 2010, dated 2014)
Like-named read-outs stand apart in the source and are kept apart here.

Key:
[1] = system: HT29 human colorectal cancer cell line; test: In vitro anti-cancer activity, HT29 human colorectal cancer cells; format: cell-based; settings: HT-29
Procedure: (§1) The anti-cancer effect compound of formula (2) and compounds (3) and (4) were evaluated using the HT29 and Colo205 human colorectal cancer cell lines.
(§2) Human colorectal cancer cells HT29 and Colo205 were plated in a 96-well plate, at a concentration of 1×10^4-5 cells/well. The human colorectal cancer cells were incubated at 37° C. with 5% CO2 overnight. These cancer cells were washed three times with a serum free medium or a phosphate buffer solution (PBS) the next day. The compound of Formula (2) and Compounds (3) and (4) were added to the HT29 and Colo205 human colorectal cancer cells respectively. The experiment was performed three times and the average IC50 value was calculated.

[2] = system: Colo205 human colorectal cancer cell line; test: In vitro anti-cancer activity, Colo205 human colorectal cancer cells; format: cell-based; settings: COLO 205
Procedure: as §1, §2

[3] = HT29 human colorectal cancer cells, average of three experiments, FIG. 6, read-out: IC50
[4] = Colo205 human colorectal cancer cells, average of three experiments, FIG. 7, read-out: IC50

Row | IC50 [1, 3] [µM] | IC50 [2, 4] [µM] | SMILES | IC50 ([1]; Homo sapiens) [µM] | IC50 ([2]; Homo sapiens) [µM]
1 | > 100 | > 100 | COc1cc(C)c(OC)c2c1OCO2 [Compound (4)] |  | 
2 |  |  | C=C(C)C#Cc1c(C)c(OC)c(OC)c(OC)c1OC [compound (3)] | 59 | 42
3 | 66 | 9 | C=C(C)C#Cc1c(C)c(OC)c2c(c1OC)OCO2 [formula (2), 1,2-methylenedioxy-3,6-bismethoxy-4-(3-methyl-3-alkene-1-butyne)-5-methylbenzene] |  | 
